Measurements published in ChEMBL document CHEMBL5728734, “2,6-dioxaspiro [4,5] decane derivatives and preparation method therefor and pharmaceutical applications thereof” (2021).

What follows are molecules tested against Mu-type opioid receptor (Homo sapiens, UniProt P35372) (assay: Detection of MOR cAMP Agonist Activity: The experiment was performed using a cAMP detection kit from Cisbio (Cisbio #62AM4PEJ).).
Chain of Mu-type opioid receptor (P35372 whole entry): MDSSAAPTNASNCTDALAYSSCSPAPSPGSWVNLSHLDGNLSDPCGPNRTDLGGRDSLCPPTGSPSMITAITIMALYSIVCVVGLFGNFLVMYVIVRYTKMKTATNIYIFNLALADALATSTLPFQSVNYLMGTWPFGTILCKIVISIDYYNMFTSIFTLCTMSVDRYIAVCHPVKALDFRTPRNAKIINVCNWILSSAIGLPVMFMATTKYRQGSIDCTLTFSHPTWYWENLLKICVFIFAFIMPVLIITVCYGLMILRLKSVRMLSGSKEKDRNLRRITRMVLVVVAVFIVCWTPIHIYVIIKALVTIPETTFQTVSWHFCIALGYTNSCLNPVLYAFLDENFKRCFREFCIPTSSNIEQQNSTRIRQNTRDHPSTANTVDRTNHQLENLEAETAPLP

| Structure (SMILES) | EC50 [nM] |
| --- | --- |
| c1ccc([C@]2(CCNCc3cc4c(s3)CCC4)CCOC3(CCCC3)C2)nc1 | 0.9 |
| Fc1ccc([C@]2(CCNCc3scc4c3CCC4)CCO[C@]3(CCOC3)C2)nc1 | 0.1 |
| c1ccc([C@]2(CCNCc3scc4c3CCC4)CCO[C@]3(CCOC3)C2)nc1 | 0.47 |
| Cc1cccc(CNCC[C@@]2(c3ccc(F)cn3)CCO[C@]3(CCOC3)C2)c1 | 0.1 |
| c1ccc([C@]2(CCN[C@H]3CCc4ccccc43)CCO[C@]3(CCOC3)C2)nc1 | 4 |
